Measured values published in ChEMBL document CHEMBL5154863, “Design and synthesis of quinolinium-based derivatives targeting FtsZ for antibacterial evaluation and mechanistic study” (Eur J Med Chem, 2022).
Values after ≈ are worked out from the molar mass of the structure shown. Active and inactive are the calls of the source. The calls are words filed in the database; no cut-off is given here.

What was measured:
[1] = system: Staphylococcus aureus; assay: Antibacterial activity against methicillin-resistant Staphylococcus aureus ATCC BAA41 assessed as inhibition of bacterial growth incubated for 24 hrs by checker board assay; format: functional
[2] = system: Staphylococcus aureus; assay: microbe, parasite or virus in culture; conditions: ATCC BAA41, 24 h
Description: Synergistic antibacterial activity against methicillin-resistant Staphylococcus aureus ATCC BAA41 assessed as inhibition of bacterial growth incubated for 24 hrs in presence of (E)-2-(4-(dimethylamino)styryl)-1-methyl-4-(4-methylpiperidin-1-yl)quinolin-1-ium iodide by checker board assay

[3] = system: Staphylococcus aureus; assay: microbe, parasite or virus in culture; conditions: ATCC BAA41, 24 h; remark: listed apart in the source
Description: Synergistic antibacterial activity against methicillin-resistant Staphylococcus aureus ATCC BAA41 assessed as inhibition of bacterial growth incubated for 24 hrs in presence of (E)-4-(4-(dimethylamino)styryl)-1-methyl-2-(4-methylpiperidin-1-yl)quinolin-1-ium iodide by checker board assay

[4] = system: Staphylococcus aureus; assay: microbe, parasite or virus in culture; conditions: ATCC BAA41, 24 h; remark: listed apart in the source
Description: Synergistic antibacterial activity against methicillin-resistant Staphylococcus aureus ATCC BAA41 assessed as inhibition of bacterial growth incubated for 24 hrs in presence of (E)-2-(4-(dimethylamino)styryl)-1-methyl-4-(piperidin-1-yl)quinolin-1-ium iodide by checker board assay

[5] = system: Staphylococcus aureus; assay: microbe, parasite or virus in culture; conditions: ATCC BAA41, 24 h; remark: listed apart in the source
Description: Synergistic antibacterial activity against methicillin-resistant Staphylococcus aureus ATCC BAA41 assessed as inhibition of bacterial growth incubated for 24 hrs in presence of (E)-2-(4-(dimethylamino)styryl)-1-methyl-4-(pentylamino)quinolin-1-ium iodide by checker board assay

[6] = Ratio of MBC for bactericidal activity against Bacillus subtilis CMCC (B) 63501 to MIC for antibacterial activity against Bacillus subtilis CMCC (B) 63501; format: functional
[7] = Ratio of MBC for bactericidal activity against Enterococcus faecium ATCC 700221 to MIC for antibacterial activity against Enterococcus faecium ATCC 700221; format: functional
[8] = target: T1, Cell division protein FtsZ (Staphylococcus aureus) (UniProt P0A031); assay: Induction of Staphylococcus aureus FtsZ polymerization expressed in Escherichia coli BL21 (DE3) assessed as increase in absorbance at 2 to 8 ug/ml in presence of GTP by microplate reader method; conditions: dose 2-8 µg/ml, DDE = dose-dependent effect
T1 sequence (whole entry): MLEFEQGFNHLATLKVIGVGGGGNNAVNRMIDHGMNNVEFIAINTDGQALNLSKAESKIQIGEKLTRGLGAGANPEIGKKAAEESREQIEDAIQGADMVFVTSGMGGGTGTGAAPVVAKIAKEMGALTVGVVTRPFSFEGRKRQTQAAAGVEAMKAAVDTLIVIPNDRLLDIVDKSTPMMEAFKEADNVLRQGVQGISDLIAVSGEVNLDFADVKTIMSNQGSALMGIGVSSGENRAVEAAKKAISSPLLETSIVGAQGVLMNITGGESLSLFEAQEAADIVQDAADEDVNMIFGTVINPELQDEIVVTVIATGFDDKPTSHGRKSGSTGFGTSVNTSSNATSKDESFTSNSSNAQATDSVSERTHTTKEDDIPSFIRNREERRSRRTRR

[9] = system: Staphylococcus aureus; assay: Antibacterial activity against Staphylococcus aureus ATCC 29213 assessed as inhibition of bacterial growth incubated for 20 to 24 hrs by broth micro dilution method; format: functional; conditions: time 20-24 hrs
[10] = system: Staphylococcus aureus; assay: Antibacterial activity against methicillin-resistant Staphylococcus aureus ATCC 43300 assessed as inhibition of bacterial growth incubated for 20 to 24 hrs by broth micro dilution method; format: functional; conditions: time 20-24 hrs
[11] = system: Staphylococcus aureus; assay: Antibacterial activity against methicillin-resistant Staphylococcus aureus ATCC 33592 assessed as inhibition of bacterial growth incubated for 20 to 24 hrs by broth micro dilution method; format: functional; conditions: time 20-24 hrs
[12] = system: Staphylococcus aureus; assay: Antibacterial activity against methicillin-resistant Staphylococcus aureus ATCC BAA-1720 assessed as inhibition of bacterial growth incubated for 20 to 24 hrs by broth micro dilution method; format: functional; conditions: time 20-24 hrs
[13] = system: Staphylococcus aureus; assay: Antibacterial activity against vancomycin-intermediate Staphylococcus aureus Mu50 assessed as inhibition of bacterial growth incubated for 20 to 24 hrs by broth micro dilution method; format: functional; conditions: time 20-24 hrs
[14] = system: Staphylococcus epidermidis; assay: Antibacterial activity against Staphylococcus epidermidis ATCC 12228 assessed as inhibition of bacterial growth incubated for 20 to 24 hrs by broth micro dilution method; format: functional; conditions: time 20-24 hrs
[15] = system: Bacillus subtilis; assay: Antibacterial activity against Bacillus subtilis CMCC (B) 63501 assessed as inhibition of bacterial growth incubated for 20 to 24 hrs by broth micro dilution method; format: functional; conditions: time 20-24 hrs
[16] = system: Enterococcus faecium; assay: Antibacterial activity against Enterococcus faecium ATCC 49624 assessed as inhibition of bacterial growth incubated for 20 to 24 hrs by broth micro dilution method; format: functional; conditions: time 20-24 hrs
[17] = system: Enterococcus faecalis; assay: Antibacterial activity against Enterococcus faecalis ATCC 29212 assessed as inhibition of bacterial growth incubated for 20 to 24 hrs by broth micro dilution method; format: functional; conditions: time 20-24 hrs
[18] = system: Enterococcus faecium; assay: Antibacterial activity against vancomycin resistant Enterococcus faecium ATCC 700221 assessed as inhibition of bacterial growth incubated for 20 to 24 hrs by broth micro dilution method; format: functional; conditions: time 20-24 hrs
[19] = system: Enterococcus faecium; assay: Antibacterial activity against vancomycin-resistant Enterococcus faecium clinical isolate assessed as inhibition of bacterial growth incubated for 20 to 24 hrs by broth micro dilution method; format: functional; conditions: time 20-24 hrs
[20] = system: Escherichia coli; assay: Antibacterial activity against Escherichia coli ATCC 25922 assessed as inhibition of bacterial growth incubated for 20 to 24 hrs by broth micro dilution method; format: functional; conditions: time 20-24 hrs
[21] = system: Escherichia coli; assay: Antibacterial activity against Escherichia coli ATCC 8739 assessed as inhibition of bacterial growth incubated for 20 to 24 hrs by broth micro dilution method; format: functional; conditions: time 20-24 hrs
[22] = system: Escherichia coli; assay: Antibacterial activity against NDM-1 expressing Escherichia coli ATCC BAA2469 assessed as inhibition of bacterial growth incubated for 20 to 24 hrs by broth micro dilution method; format: functional; conditions: time 20-24 hrs
[23] = system: Acinetobacter baumannii; assay: Antibacterial activity against multi-drug resistant Acinetobacter baumannii ATCC 19606 assessed as inhibition of bacterial growth incubated for 20 to 24 hrs by broth micro dilution method; format: functional; conditions: time 20-24 hrs
[24] = system: Pseudomonas aeruginosa; assay: Antibacterial activity against […] Pseudomonas aeruginosa ATCC 27853 assessed as inhibition of bacterial growth incubated for 20 to 24 hrs by broth micro dilution method; format: functional; conditions: time 20-24 hrs
[25] = system: Klebsiella pneumoniae; assay: Antibacterial activity against NDM-1 expressing Klebsiella pneumoniae ATCC BAA 2470 assessed as inhibition of bacterial growth incubated for 20 to 24 hrs by broth micro dilution method; format: functional; conditions: time 20-24 hrs
[26] = system: Bacillus subtilis; assay: Bactericidal activity against Bacillus subtilis CMCC (B) 63501 assessed as inhibition of bacterial growth incubated for 24 hrs by resazurin dye based microtiter plate assay; format: functional
[27] = system: Staphylococcus aureus; assay: Bactericidal activity against Staphylococcus aureus ATCC 29213 assessed as inhibition of bacterial growth incubated for 24 hrs by resazurin dye based microtiter plate assay; format: functional
[28] = system: Staphylococcus aureus; assay: Bactericidal activity against Staphylococcus aureus ATCC 43300 assessed as inhibition of bacterial growth incubated for 24 hrs by resazurin dye based microtiter plate assay; format: functional
[29] = system: Enterococcus faecium; assay: Bactericidal activity against Enterococcus faecium ATCC 700221 assessed as inhibition of bacterial growth incubated for 24 hrs by resazurin dye based microtiter plate assay; format: functional
[30] = Ratio of MBC for bactericidal activity against Staphylococcus aureus ATCC 29213 to MIC for antibacterial activity against Staphylococcus aureus ATCC 29213; format: functional
[31] = Ratio of MBC for bactericidal activity against Staphylococcus aureus ATCC 43300 to MIC for antibacterial activity against Staphylococcus aureus ATCC 43300; format: functional
[32] = system: Staphylococcus aureus; assay: Antibacterial activity against methicillin-resistant Staphylococcus aureus ATCC BAA41 assessed as fractional inhibitory concentration index incubated for 24 hrs by checker board assay; format: functional
[33] = system: Staphylococcus aureus; assay: Synergistic antibacterial activity against methicillin-resistant Staphylococcus aureus ATCC BAA41 assessed as inhibition of bacterial growth incubated for 24 hrs in presence of methicillin by checker board assay; format: functional
[34] = system: Bacillus subtilis; assay: Induction of morphological changes in Bacillus subtilis CMCC (B) 63501 assessed as elongation of bacterial cell at 0.5 times MIC for 4 hrs (reference value: 3 to 5 um) by microscopic analysis; format: functional
[35] = system: Staphylococcus aureus; assay: Induction of morphological changes in Staphylococcus aureus ATCC 29213 assessed as enlargement of cell size at 0.5 times MIC for 4 hrs by microscopic analysis; format: functional, organism-based
[36] = target: T1, Cell division protein FtsZ (Staphylococcus aureus); assay: Induction of Staphylococcus aureus FtsZ polymerization expressed in Escherichia coli BL21 (DE3) assessed as increase in absorbance at 2 to 8 ug/ml by microplate reader method; conditions: dose 2-8 µg/ml
[37] = target: T1, Cell division protein FtsZ (Staphylococcus aureus); assay: Binding affinity to Staphylococcus aureus FtsZ assessed as equilibrium binding constant by isothermal titration calorimetry
[38] = target: T1, Cell division protein FtsZ (Staphylococcus aureus); assay: Binding affinity to Staphylococcus aureus FtsZ assessed as increase in alpha helix structure at 8 ug/ml incubated for 30 mins by circular dichroism method; conditions: dose 8.0 µg/ml
[39] = target: T1, Cell division protein FtsZ (Staphylococcus aureus); assay: Binding affinity to Staphylococcus aureus FtsZ assessed as decrease in beta turn structure at 8 ug/ml incubated for 30 mins by circular dichroism method; conditions: dose 8.0 µg/ml
[40] = target: T1, Cell division protein FtsZ (Staphylococcus aureus); assay: Binding affinity to Staphylococcus aureus FtsZ assessed as decrease in random coil structure at 8 ug/ml incubated for 30 mins by circular dichroism method; conditions: dose 8.0 µg/ml
[41] = target: T1, Cell division protein FtsZ (Staphylococcus aureus); assay: Binding affinity to Staphylococcus aureus FtsZ assessed as decrease in other structure at 8 ug/ml incubated for 30 mins by circular dichroism method; conditions: dose 8.0 µg/ml
[42] = target: T2, Cell division protein FtsZ (Staphylococcus aureus, UniProt P0A031); assay: Binding affinity to Staphylococcus aureus FtsZ assessed as dissociation constant by isothermal titration calorimetry
T2 sequence (P0A031 whole entry): T1 sequence (whole entry)

[43] = system: Erythrocyte; assay: Hemolytic activity in Kunming mouse erythrocyte at 1 to 64 ug/ml incubated for 1 hr; format: toxicity, cell-based; conditions: dose 1-64 µg/ml
[44] = Cytotoxicity against mouse L929 cells incubated for 48 hrs by MTT assay; format: toxicity, cell-based
[45] = Cytotoxicity against human HK-2 cells incubated for 48 hrs by MTT assay; format: toxicity, cell-based
[46] = system: Staphylococcus aureus; assay: Antibacterial activity against Staphylococcus aureus ATCC 29213 infected in L929 cells assessed as inhibition of bacterial growth incubated for 20 to 24 hrs by broth micro dilution method; format: functional; conditions: time 20-24 hrs
[47] = system: Staphylococcus aureus; assay: Antibacterial activity against Staphylococcus aureus ATCC 29213 infected in HK-2 cells assessed as inhibition of bacterial growth incubated for 20 to 24 hrs by broth micro dilution method; format: functional; conditions: time 20-24 hrs
[48] = system: Staphylococcus aureus; assay: Induction of drug resistance against Staphylococcus aureus ATCC 29213 assessed as fold increase in MIC after 16 passage; format: functional
[49] = system: Bacillus subtilis; assay: Induction of drug resistance against Bacillus subtilis CMCC (B) 63501 measured after 16 passages; format: functional; conditions: dose <= 64.0 µg/ml, time 30.0 min

With `COc1cccc(OC)c1C(=O)N[C@@H]1C(=O)N2[C@@H]1SC(C)(C)[C@@H]2C(=O)O` [METHICILLIN] the MIC [1] was 1020 µg/mL, the MIC [2] was 64 µg/mL (≈ 168 µM) and the MIC [3] was 64 µg/mL (≈ 168 µM). The MIC [4] was 128 µg/mL (≈ 336 µM) and the MIC [5] was 256 µg/mL (≈ 673 µM).
With `CC1CCN(c2cc(/C=C/c3ccc(N(C)C)cc3)c3ccccc3[n+]2C)CC1.[I-]` the Ratio [6] was 2, the Ratio [7] was 4 and the Activity [8] was “Dde”. The MIC [9] was 2 µg/mL, the MIC [10] was 4 µg/mL and the MIC [11] was 4 µg/mL. The MIC [12] was 4 µg/mL, the MIC [13] was 4 µg/mL and the MIC [14] was 1 µg/mL. For the same compound, the MIC [15] was 8 µg/mL, the MIC [16] was 16 µg/mL and the MIC [17] was 16 µg/mL. The MIC [18] was 2 µg/mL, the MIC [19] was 16 µg/mL and the MIC [20] was 32 µg/mL. For the same compound, the MIC [21] was 64 µg/mL, the MIC [22] was 64 µg/mL and the MIC [23] was > 64 µg/mL. For the same compound, the MIC [24] was > 64 µg/mL, the MIC [25] was > 64 µg/mL and the MBC [26] was 16 µg/mL. The MBC [27] was 16 µg/mL, the MBC [28] was 32 µg/mL and the MBC [29] was 8 µg/mL. For the same compound, the Ratio [30] was >4, the Ratio [31] was >4 and the “fractional inhibitory concentration index (FICI)” value [32] was 0.3125. For the same compound, the MIC [1] was 16 µg/mL, the MIC [33] was 4 µg/mL and the Activity [34] was 30 um. For the same compound, the Activity [35] was “Active”, the Activity [36] was “Active” and the Kb [37] was 2.08 10^5/M. For the same compound, the Activity [38] was “Active”, the Activity [39] was “Active” and the Activity [40] was “Active”. For the same compound, the Activity [41] was “Active”, the Kd [42] was 3.86 µM and the IC5 [43] was 32 µg/mL. For the same compound, the IC50 at 48 h [44] was 11.3 µg/mL, the IC50 at 48 h [45] was 8.89 µg/mL and the MIC [46] was 2 µg/mL. The MIC [47] was 2 µg/mL, the fold change (FC) [48] was 8 and the Activity [49] was “Active”.
